According to patent publication US10570129B2 (Zoetis Services LLC, priority 2015, dated 2020):

Key:
D. immitis microfilariae = experiment: Dirofilaria immitis, microfilariae (DiMF) in vitro motility assay; type: cell-based; conditions: Dirofilaria immitis, 72 h, read-out: DiMF minimally effective dose (MEC)
Haemonchus contortus L3 = experiment: microbe, parasite or virus in culture; type: cell-based; conditions: Haemonchus contortus, 96 h, read-out: HcL3 Minimal Effective Concentration (MEC)

SMILES	minimal effective concentration (D. immitis microfilariae)	minimal effective concentration (Haemonchus contortus L3)
COc1ccc(/C=C/CN2CCc3c(c4ccc(OC(F)(F)F)cc4n3C(=O)NCc3ccnc(Cl)c3)C2)cc1 [Example 358, (E)-N-((2-chloropyridin-4-yl)methyl)-2-(3-(4-methoxyphenyl)allyl)-7-(trifluoromethoxy)-1,2,3,4-tetrahydro-5H-pyrido[4,3-b]indole-5-carboxamide]	7.6 µM	1.3 µM
O=C(NCc1ccnc(Cl)c1)n1c2c(c3ccc(OC(F)(F)F)cc31)CN(C/C=C/c1ccc(Cl)c(Cl)c1)CC2 [Example 355, (E)-N-((2-chloropyridin-4-yl)methyl)-2-(3-(3,4-dichlorophenyl)allyl)-7-(trifluoromethoxy)-1,2,3,4-tetrahydro-5H-pyrido[4,3-b]indole-5-carboxamide]	69.1 µM	1 µM
O=C(NCc1ccnc(F)c1)n1c2c(c3cc(C(F)(F)F)ccc31)CN(C/C=C/c1ccc(Cl)c(Cl)c1)CC2 [Example 422, (E)-2-(3-(3,4-dichlorophenyl)allyl)-N-((2-fluoropyridin-4-yl)methyl)-8-(trifluoromethyl)-1,2,3,4-tetrahydro-5H-pyrido[4,3-b]indole-5-carboxamide]	18.2 µM	10 µM
COc1ccc(/C=C/CN2CCc3c(c4cc(Cl)c(Cl)cc4n3C(=O)NCc3ccnc(Cl)c3)C2)cc1 [Example 283, (E)-7,8-dichloro-N-((2-chloropyridin-4-yl)methyl)-2-(3-(4-methoxyphenyl)allyl)-1,2,3,4-tetrahydro-5H-pyrido[4,3-b]indole-5-carboxamide]	3.3 µM	0.5 µM
O=C(NCc1ccnc(F)c1)n1c2c(c3cc(OC(F)(F)F)ccc31)CN(C/C=C/c1cc(F)c(F)c(F)c1)CC2 [Example 406, (E)-N-((2-fluoropyridin-4-yl)methyl)-8-(trifluoromethoxy)-2-(3-(3,4,5-trifluorophenyl)allyl)-1,2,3,4-tetrahydro-5H-pyrido[4,3-b]indole-5-carboxamide]	13.5 µM	0.4 µM
O=C(NCc1ccnc(Cl)c1)n1c2c(c3c(C(F)(F)F)cccc31)CN(C/C=C/c1ccc(F)cc1)CC2 [Example 161, (E)-N-((2-chloropyridin-4-yl)methyl)-2-(3-(4-fluorophenyl)allyl)-9-(trifluoromethyl)-1,2,3,4-tetrahydro-5H-pyrido[4,3-b]indole-5-carboxamide]	10 µM	2.1 µM
N#Cc1ccc2c(c1)c1c(n2C(=O)NCc2ccnc(Cl)c2)CCN(C/C=C/c2ccc(Br)cc2F)C1 [Example 73, (E)-2-(3-(4-bromo-2-fluorophenyl)allyl)-N-((2-chloropyridin-4-yl)methyl)-8-cyano-1,2,3,4-tetrahydro-5H-pyrido[4,3-b]indole-5-carboxamide]	> 100 µM	0.1 µM
CSc1ccc2c(c1)c1c(n2C(=O)NCc2ccnc(Cl)c2)CCN(C/C=C/c2ccc(Cl)c(F)c2)C1 [Example 445, (E)-2-(3-(4-chloro-3-fluorophenyl)allyl)-N-((2-chloropyridin-4-yl)methyl)-8-(methylthio)-1,2,3,4-tetrahydro-5H-pyrido[4,3-b]indole-5-carboxamide]	33 µM	0.5 µM
N#Cc1cc2c(cc1F)c1c(n2C(=O)NCc2ccnc(Cl)c2)CCN(C/C=C/c2ccc(Cl)c(F)c2)C1 [Example 172, (E)-2-(3-(4-chloro-3-fluorophenyl)allyl)-N-((2-chloropyridin-4-yl)methyl)-7-cyano-8-fluoro-1,2,3,4-tetrahydro-5H-pyrido[4,3-b]indole-5-carboxamide]	> 100 µM	10 µM
O=C(NCc1ccnc(Cl)c1)n1c2c(c3cc(F)c(OC(F)(F)F)cc31)CN(C/C=C/c1ccc(F)cc1)CC2 [Example 471, (E)-N-((2-chloropyridin-4-yl)methyl)-8-fluoro-2-(3-(4-fluorophenyl)allyl)-7-(trifluoromethoxy)-1,2,3,4-tetrahydro-5H-pyrido[4,3-b]indole-5-carboxamide]	10 µM	0.3 µM
O=C(NCc1ccnc(Cl)c1)n1c2c(c3cc(Br)c(Cl)cc31)CN(C/C=C/c1ccc(Cl)cc1)CC2 [Example 196, (E)-8-bromo-7-chloro-2-(3-(4-chlorophenyl)allyl)-N-((2-chloropyridin-4-yl)methyl)-1,2,3,4-tetrahydro-5H-pyrido[4,3-b]indole-5-carboxamide]	5.7 µM	0.3 µM
O=C(NCc1ccnc(Cl)c1)n1c2c(c3ccc(C(F)(F)F)cc31)CN(C/C=C/c1ccc(C(F)(F)F)cc1)CC2 [Example 425, (E)-N-((2-chloropyridin-4-yl)methyl)-7-(trifluoromethyl)-2-(3-(4-(trifluoro-methyl)phenyl)allyl)-1,2,3,4-tetrahydro-5H-pyrido[4,3-b]indole-5-carboxamide]	15.8 µM	> 100 µM
O=C(NCc1ccnc(Cl)c1)n1c2c(c3ccc(OC(F)(F)F)cc31)CN(C/C=C/c1ccc(F)c(Cl)c1)CC2 [Example 348, (E)-2-(3-(3-chloro-4-fluorophenyl)allyl)-N-((2-chloropyridin-4-yl)methyl)-7-(trifluoromethoxy)-1,2,3,4-tetrahydro-5H-pyrido[4,3-b]indole-5-carboxamide]	24.5 µM	1 µM
O=C(NCc1cnc(Cl)s1)n1c2c(c3ccc(OC(F)(F)F)cc31)CN(C/C=C/c1ccc(Cl)cc1)CC2 [Example 382, (E)-2-(3-(4-chlorophenyl)allyl)-N-((2-chlorothiazol-5-yl)methyl)-7-(trifluoromethoxy)-1,2,3,4-tetrahydro-5H-pyrido[4,3-b]indole-5-carboxamide]	10 µM	3.3 µM
O=C(NCc1ccnc(F)c1)n1c2c(c3cc(Br)ccc31)CN(C/C=C/c1ccc(F)c(F)c1)CC2 [Example 191, (E)-8-bromo-2-(3-(3,4-difluorophenyl)allyl)-N-((2-fluoropyridin-4-yl)methyl)-1,2,3,4-tetrahydro-5H-pyrido[4,3-b]indole-5-carboxamide]	10 µM	0.3 µM
O=C(NCc1ccnc(F)c1)n1c2c(c3ccc(OC(F)(F)F)cc31)CN(C/C=C/c1ccc(Cl)cc1Cl)CC2 [Example 370, (E)-2-(3-(2,4-dichlorophenyl)allyl)-N-((2-fluoropyridin-4-yl)methyl)-7-(trifluoromethoxy)-1,2,3,4-tetrahydro-5H-pyrido[4,3-b]indole-5-carboxamide]	33 µM	3.3 µM
O=C(NCc1ccnc(Cl)c1)n1c2c(c3c(C(F)(F)F)cc(F)cc31)CN(C/C=C/c1ccc(F)cc1)CC2 [Example 324, (E)-N-((2-chloropyridin-4-yl)methyl)-7-fluoro-2-(3-(4-fluorophenyl)allyl)-9-(trifluoromethyl)-1,2,3,4-tetrahydro-5H-pyrido[4,3-b]indole-5-carboxamide]	10 µM	3.3 µM
